# Target: T1, Corticotropin-releasing factor receptor 1 (Homo sapiens, UniProt P34998)
# T1 sequence (P34998 whole entry): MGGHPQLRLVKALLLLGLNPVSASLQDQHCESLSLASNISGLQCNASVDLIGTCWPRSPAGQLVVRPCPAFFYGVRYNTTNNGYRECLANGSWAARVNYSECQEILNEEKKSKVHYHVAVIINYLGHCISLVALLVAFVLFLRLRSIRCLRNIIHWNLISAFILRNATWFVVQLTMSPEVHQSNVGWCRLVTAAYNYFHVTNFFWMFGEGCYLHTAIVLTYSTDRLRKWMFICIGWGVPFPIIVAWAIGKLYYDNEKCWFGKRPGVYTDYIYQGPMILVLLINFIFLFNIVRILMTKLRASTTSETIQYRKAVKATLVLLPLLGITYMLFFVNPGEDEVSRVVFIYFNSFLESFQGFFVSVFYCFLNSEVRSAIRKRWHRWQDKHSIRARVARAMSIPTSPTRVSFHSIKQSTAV
# Assay: Binding affinity for transfected human Corticotropin releasing factor receptor expressed in HEK 293E cells using [125I]TYR-oCRH as the displaced radioligand
# Format: cell-based, HEK293
row,SMILES,Ki [nM]
1,COCCN(CCOC)c1nc(C)nc2c1n(C)c(=O)n2-c1ccc(C(C)C)cc1Br,130
2,CCCCN(CC)c1nc(C)nc2c1n(C)c(=O)n2-c1c(C)cc(C)nc1C,124
3,CCCN(CC1CC1)c1nc(C)nc2c1n(C)c(=O)n2-c1c(C)cc(C)nc1C,113
4,CCCN(CCC)c1nc(C)nc2c1n(C)c(=O)n2-c1c(C)cc(C)nc1C,259
5,CCCCN(CC)c1nc(C)cc2c1n(C)c(=O)n2-c1ccc(C(C)C)cc1Br,463
6,CCC(COC)Nc1nc(C)nc2c1n(C)c(=O)n2-c1ccc(C(C)C)cc1Br (configuration not stated),42.8
7,CCCCC(CC)Nc1nc(C)nc2c1n(C)c(=O)n2-c1ccc(C(C)C)cc1Br (configuration not stated),15.1
8,CCCCN(CC)c1nc(C)nc2c1nc(N1CCOCC1)n2-c1ccc(C(C)C)cc1Br,345
9,CCCCN(CC)c1nc(C)nc2c1nc(OC)n2-c1ccc(C(C)C)cc1Br,1.5
10,CCCCC(CC)Nc1nc(C)nc2c1n(C)c(=O)n2-c1c(C)cc(C)cc1C (configuration not stated),17.4
11,CCCN(CC1CC1)c1nc(C)nc2c1n(C)c(=O)n2-c1ccc(C(C)C)cc1Br,5.7

# Continued by falling Ki, values first:
row,Ki [nM],SMILES
1,890,CCCCN(CC)c1nc(C)nc2c1nc(O)n2-c1ccc(C(C)C)cc1Br
2,698,COCCN(CCOC)c1nc(C)nc2c1n(C)c(=O)n2-c1c(C)cc(C)cc1C
3,117,CCCCN(CC)c1nc(C)nc2c1n(CC1CC1)c(=O)n2-c1ccc(C(C)C)cc1Br
4,47.9,CCN(CCOC)c1nc(C)nc2c1n(C)c(=O)n2-c1ccc(C(C)C)cc1Br
5,31.1,CCCCN(CC)c1nc(C)nc2c1nc(OCC1CC1)n2-c1ccc(C(C)C)cc1Br
6,26.2,COCCN(Cc1ccccc1)c1nc(C)nc2c1n(C)c(=O)n2-c1ccc(C(C)C)cc1Br
7,12.2,COCCN(CC1CC1)c1nc(C)nc2c1n(C)c(=O)n2-c1ccc(C(C)C)cc1Br
8,7.6,CCCN(CCC)c1nc(C)nc2c1n(C)c(=O)n2-c1ccc(C(C)C)cc1Br
9,6.1,CCCN(CC1CC1)c1nc(C)nc2c1n(C)c(=O)n2-c1c(C)cc(C)cc1C
10,3,CCCCN(CC)c1cc(C)nc2c1n(C)c(=O)n2-c1ccc(C(C)C)cc1Br
11,1.5,CCCCN(CC)c1nc(C)nc2c1nc(Cl)n2-c1ccc(C(C)C)cc1Br

# Source: ChEMBL document CHEMBL1131668, “Purin-8-ones as corticotropin-releasing hormone (CRH-R1) receptor antagonists” (Bioorg Med Chem Lett, 1999)
